Values joined by “and” are separate entries in the source; they are usually repeats but may differ in a detail not shown here. Equal entries are not always repeated.
What was measured:
[1] = target: T1, Human immunodeficiency virus type 1 protease (Human immunodeficiency virus 1, UniProt Q72874); assay: Inhibitory concentration against HIV-1 protease expressed in Escherichia coli upon incubation in pH 5.5 buffer containing Abz-Thr-Ile-p-nitrophenylalanine-Phe-Gln-Arg-NH2
[2] = target: T1, Human immunodeficiency virus type 1 protease; assay: Binding affinity for HIV-1 protease expressed in Escherichia coli upon incubation in pH 5.5 buffer containing Abz-Thr-Ile-p-nitrophenylalanine-Phe-Gln-Arg-NH2
[3] = target: Cathepsin D (Homo sapiens, UniProt P07339); assay: Binding affinity af the compound towards cathepsin D

| Structure (SMILES) | IC50 [1] | Ki [2] | Ki [3] [nM] |
| --- | --- | --- | --- |
| CC(C)CCS(=O)(=O)[C@@H](C)C[C@@H](O)[C@H](Cc1cccc(Br)c1)NC(=O)CCS(C)(=O)=O | > 40000 nM | > 40000 nM | – |
| Cc1cccc(C)c1OCC(=O)N[C@H](Cc1cccc(Br)c1)[C@@H](O)C[C@@H](CC(C)C)S(=O)(=O)c1ccc(F)cc1 | 2000 nM | 1400 nM | – |
| O=C(N[C@@H](Cc1cccc(Br)c1)[C@H](O)C[C@H](CCc1ccc(Cl)cc1Cl)S(=O)(=O)c1ccc(F)cc1)[C@H]1CCCO1 | – | 3900 nM and 2900 nM | – |
| CC(C)CN(C[C@@H](O)[C@H](Cc1ccccc1)NC(=O)O[C@H]1CCOC1)S(=O)(=O)c1ccc(N)cc1 [AMPRENAVIR] | – | 0.06 nM | – |
| CNc1ccc(S(=O)(=O)[C@@H](CC(C)C)C[C@@H](O)[C@H](Cc2cccc(Br)c2)NC(=O)COc2c(C)cccc2C)cc1 | 530 nM | 370 nM | – |
| COc1cc(Br)c(C(=O)N[C@@H](Cc2cccc(Br)c2)[C@H](O)C[C@H](CCc2ccc(Cl)cc2Cl)S(=O)(=O)c2ccc(F)cc2)cc1OC | 4500 nM | 3100 nM | – |
| O=C(N[C@H](Cc1cccc(Br)c1)[C@@H](O)C[C@@H](CCc1ccc(Cl)cc1Cl)S(=O)(=O)c1ccc(F)cc1)[C@H]1CCCO1 | > 40000 nM | > 40000 nM | – |
| O=C(COc1ccc(Cl)cc1Cl)N[C@@H](Cc1cccc(Br)c1)[C@H](O)C[C@H](CCc1ccc(Cl)cc1Cl)S(=O)(=O)c1ccc(F)cc1 | 10000 nM | 7000 nM | – |
| Cc1cccc(C)c1OCC(=O)N[C@@H](Cc1cccc(Br)c1)[C@H](O)C[C@H](CC(C)C)S(=O)(=O)c1ccc(N(C)C)cc1 | 790 nM | 540 nM | – |
| COc1cc(Br)c(C(=O)N[C@@H](Cc2cccc(Oc3ccccc3)c2)[C@@H](O)CN(CCc2ccc(Cl)cc2Cl)C(=O)CCN2C(=O)c3ccccc3C2=O)cc1OC | – | – | 0.07 |
| Cc1cccc(C)c1OCC(=O)N[C@@H](Cc1cccc(Br)c1)[C@H](O)C[C@H](CC(C)C)S(=O)(=O)c1ccc(F)cc1 | 140 nM and 85 nM | 80 nM and 45 nM | – |
